Melting point and IC50 data for 47 compounds are collected here from patent US6441021B1, “Sulfonated amino acid derivatives and metalloproteinase inhibitors containing the same” (Shionogi & Co., Ltd., priority 1996, dated 2002).

The target in data set [1] is T1, MMP-9 (92 kDa, gelatinase B; type IV collagenase) (Homo sapiens, UniProt P14780).
T1 construct: endogenous in cells; enzyme purified from the conditioned medium
Briefly: Assay of type IV collagenase inhibitors: activated MMP-9 with type IV collagenase activity kit substrate, fluorescent intensity. In kind it is biochemical. The protocol: (1) Isolation and Purification of MMP-9 (92 kDa, Gelatinase B)
Type IV collagenase (MMP-9) was purified according to the methods descrived in the following literature.
Subsequently, activated MMP-9 was obtained by treating the pro-MMP-9 with trypsin.
(2) Assay Methods of Type IV Collagenase Inhibitors
Collagenase assay was performed using the activated MMP-9 described above and the substrate supplied in the type IV collagenase activity kit (YAGAI, inc.), according to the manufacturer's protocol. The following 4 assays are performed per compound (inhibitor).
(A) substrate (type IV collagenase), enzyme (MMP-9), inhibitor
(B) substrate (type IV collagenase), inhibitor
(C) substrate (type IV collagenase), enzyme (MMP-9)
(D) substrate (type IV collagenase)
According to the manufacturer's protocol, fluorescent intensity was measured and percent inhibition was determined by the following equation.
Inhibition (%)={1−(A−B)/(C−D)}×100

Setting [2] is: inhibition of type IV collagenase (MMP-9), concentration at which percent inhibition reaches 50%.

The term melting point denotes the temperature, or range, at which the solid turns liquid. Usually IC50 stands for the concentration at which inhibition is half-maximal. Low values mean inhibition by little substance, high ones a need for much substance.

Read-outs that look alike come from different tables or passages of the source.

T1 sequence (P14780 107-707 limits assumed): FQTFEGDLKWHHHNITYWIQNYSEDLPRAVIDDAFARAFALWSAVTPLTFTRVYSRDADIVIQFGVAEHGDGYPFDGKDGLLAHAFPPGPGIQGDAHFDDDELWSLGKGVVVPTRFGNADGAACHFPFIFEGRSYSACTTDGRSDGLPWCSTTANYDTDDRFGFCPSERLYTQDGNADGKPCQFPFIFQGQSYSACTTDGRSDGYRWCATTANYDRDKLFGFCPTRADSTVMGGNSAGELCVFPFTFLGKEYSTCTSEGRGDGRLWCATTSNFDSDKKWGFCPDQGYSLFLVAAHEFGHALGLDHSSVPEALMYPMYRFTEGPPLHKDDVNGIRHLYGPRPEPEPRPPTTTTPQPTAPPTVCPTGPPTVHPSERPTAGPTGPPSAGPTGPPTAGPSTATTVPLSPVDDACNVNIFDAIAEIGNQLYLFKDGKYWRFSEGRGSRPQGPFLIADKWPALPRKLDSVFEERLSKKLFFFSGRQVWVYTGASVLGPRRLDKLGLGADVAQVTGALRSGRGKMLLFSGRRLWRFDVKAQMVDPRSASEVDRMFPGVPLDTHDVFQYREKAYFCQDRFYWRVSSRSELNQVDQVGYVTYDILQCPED

Consider `Cc1ccc(C(=O)Nc2ccc(S(=O)(=O)N[C@@H](C(=O)O)C(C)C)cc2)cc1` (hydrate or solvate) [Example 196], for which the melting point lay in the range of 227 to 229 °C.

As for `CC(C)[C@@H](NS(=O)(=O)c1ccc(NC(=O)c2ccccc2)cc1)C(=O)O` (hydrate or solvate) [Example 199], the melting point was in the range of 226 to 227 °C.

Compound `COc1ccc(C(=O)Nc2ccc(S(=O)(=O)N[C@@H](C(=O)O)C(C)C)cc2)cc1` (hydrate or solvate) [Example 200] yielded a melting point of 220 to 221 °C.

With `CC(C)[C@@H](NS(=O)(=O)c1ccc(NC(=O)c2ccc([N+](=O)[O-])cc2)cc1)C(=O)O` (hydrate or solvate) [Example 201], the melting point lay within 240 to 242 °C.

On to `COc1ccc(C(=O)Nc2ccc(S(=O)(=O)N[C@@H](C(=O)O)C(C)(C)C)cc2)cc1` (hydrate or solvate) [Example 203], for which the melting point fell in the range of 214 to 216 °C.

Compound `O=C(O)C(Cc1cccc2ccccc12)NS(=O)(=O)c1ccc(-c2nnn(-c3ccccc3)n2)cc1` (stereo not shown) (hydrate or solvate) [Example 218] registered a melting point of 225 to 227 °C.

Consider `O=Cn1cc(C[C@@H](NS(=O)(=O)c2ccc(-c3nnn(-c4ccccc4)n3)cc2)C(=O)O)c2ccccc21` (hydrate or solvate) [Example 219], for which the melting point was 111 to 114 °C.

In turn, `CCC(C)[C@@H](NS(=O)(=O)c1ccc(-c2nnn(-c3ccc(OC)cc3)n2)cc1)C(=O)O` (stereo partly shown) (hydrate or solvate) [Example 222] had a melting point of 204 to 207 °C.

As to `CC(C)[C@@H](NS(=O)(=O)c1ccc(-c2nnn(-c3ccc(Br)cc3)n2)cc1)C(=O)O` (hydrate or solvate) [Example 225], the melting point was 227 to 228 °C.

For `O=C(O)[C@@H](Cc1ccccc1)NS(=O)(=O)c1ccc(-c2nnn(-c3ccc([N+](=O)[O-])cc3)n2)cc1` (hydrate or solvate) [Example 230], the melting point was 190 to 191 °C.

As to `O=C(O)[C@@H](Cc1ccccc1)NS(=O)(=O)c1ccc(-c2nnn(-c3ccc(F)cc3)n2)cc1` (hydrate or solvate) [Example 231], the melting point was in the range of 205 to 207 °C.

Turning to `O=C(O)[C@@H](Cc1ccccc1)NS(=O)(=O)c1ccc(-c2nnn(-c3ccc(Cl)cc3)n2)cc1` (hydrate or solvate) [Example 232], the melting point fell in the range of 204 to 206 °C.

The compound `Cc1ccc(-n2nnc(-c3ccc(S(=O)(=O)N[C@H](Cc4ccccc4)C(=O)O)cc3)n2)cc1` (hydrate or solvate) [Example 233] had a melting point of 226 to 227 °C.

Regarding `COc1ccc(-n2nnc(-c3ccc(S(=O)(=O)N[C@H](Cc4ccccc4)C(=O)O)cc3)n2)cc1` (hydrate or solvate) [Example 234], the melting point was in the range of 214 to 216 °C.

Regarding `N#Cc1ccc(-n2nnc(-c3ccc(S(=O)(=O)N[C@H](Cc4ccccc4)C(=O)O)cc3)n2)cc1` (hydrate or solvate) [Example 235], the melting point was in the range of 190 to 192 °C.

Compound `O=C(O)[C@@H](Cc1ccccc1)NS(=O)(=O)c1ccc(-c2nnn(-c3ccc(C4CCCCC4)cc3)n2)cc1` (hydrate or solvate) [Example 237] displayed a melting point of 225 to 227 °C.

For the compound `O=C(O)[C@@H](Cc1c[nH]c2ccccc12)NS(=O)(=O)c1ccc(-c2nnn(-c3ccc(Br)cc3)n2)cc1` (hydrate or solvate) [Example 240], the melting point was 205 to 207 °C.

For `Cc1ccc(-n2nnc(-c3ccc(S(=O)(=O)N[C@H](Cc4c[nH]c5ccccc45)C(=O)O)cc3)n2)cc1` (hydrate or solvate) [Example 241], the melting point was in the range of 199 to 201 °C.

In turn, `Cc1ccc(-n2nnc(-c3ccc(S(=O)(=O)N[C@@H](C(=O)O)C(C)C)cc3)n2)cc1` (hydrate or solvate) [Example 242] returned a melting point of 206 to 207 °C.

In turn, `CC(C)[C@@H](NS(=O)(=O)c1ccc(-c2nnn(-c3ccc(F)cc3)n2)cc1)C(=O)O` (hydrate or solvate) [Example 243] had a melting point of 208 to 209 °C.

As for `CSc1ccc(-n2nnc(-c3ccc(S(=O)(=O)N[C@@H](C(=O)O)C(C)C)cc3)n2)cc1` (hydrate or solvate) [Example 245], the melting point fell in the range of 194 to 195 °C.

`CSc1ccc(-n2nnc(-c3ccc(S(=O)(=O)N[C@H](Cc4ccccc4)C(=O)O)cc3)n2)cc1` (hydrate or solvate) [Example 246]: the melting point is 222 to 224 °C.

On to `CSc1ccc(-n2nnc(-c3ccc(S(=O)(=O)N[C@H](Cc4c[nH]c5ccccc45)C(=O)O)cc3)n2)cc1` (hydrate or solvate) [Example 247], for which the melting point is 213 to 216 °C.

The compound `O=C(Nc1ccc(S(=O)(=O)N[C@H](Cc2c[nH]c3ccccc23)C(=O)O)cc1)c1ccccc1` [Example 177] registered a melting point of 215 to 217 °C. The IC50 in data set [1] (setting [2]) is 684 nM.

As for `Nc1ccc(C(=O)Nc2ccc(S(=O)(=O)N[C@H](Cc3c[nH]c4ccccc34)C(=O)O)cc2)cc1` [Example 179], the melting point is 216 to 218 °C. For the same compound, the half-inhibitory concentration (IC50) in data set [1] amounted to 2360 nM.

Take `COc1ccc(C(=O)Nc2ccc(S(=O)(=O)N[C@H](Cc3ccccc3)C(=O)O)cc2)cc1` [Example 186]: the melting point lay in the range of 237 to 239 °C. Besides, half-maximal inhibition in data set [1] (IC50) required 98.2 nM.

Take `O=C(Nc1ccc(S(=O)(=O)N[C@H](Cc2ccccc2)C(=O)O)cc1)c1ccc([N+](=O)[O-])cc1` [Example 187]: the melting point lay in the range of 235 to 239 °C. The IC50 in data set [1] amounted to 177 nM.

`O=C(Nc1ccc(S(=O)(=O)N[C@H](Cc2ccccc2)C(=O)O)cc1)c1ccccc1` [Example 188] had a melting point of 114 to 115 °C. In data set [1] (setting [2]), this compound came in with an IC50 of 843 nM.

Consider `O=C(Nc1ccc(S(=O)(=O)N[C@H](Cc2ccccc2)C(=O)O)cc1)c1ccc(Br)cc1` [Example 189], for which the melting point was in the range of 242 to 243 °C. In data set [1], this compound returned an IC50 of 37.5 nM.

In the case of `Cc1ccc(C(=O)Nc2ccc(S(=O)(=O)N[C@H](Cc3ccccc3)C(=O)O)cc2)cc1` [Example 190], the melting point was in the range of 242 to 244 °C. The compound further showed an IC50 in data set [1] (setting [2]) of 59.7 nM.

With `CSc1ccc(C(=O)Nc2ccc(S(=O)(=O)N[C@H](Cc3ccccc3)C(=O)O)cc2)cc1` [Example 191], the melting point lay within 232 to 235 °C. The IC50 in data set [1] amounted to 9.5 nM.

Turning to `O=C(Nc1ccc(S(=O)(=O)N[C@H](Cc2ccccc2)C(=O)O)cc1)c1ccc(F)cc1` [Example 192], the melting point lay within 218 to 220 °C. In addition, in data set [1], half-maximal inhibition (IC50) was put at 324 nM.

For the compound `O=C(Nc1ccc(S(=O)(=O)N[C@H](Cc2ccccc2)C(=O)O)cc1)c1ccc(Cl)nc1` [Example 193], the melting point fell in the range of 201 to 203 °C. This compound also came in with an IC50 in data set [1] of 722 nM.

`CSc1ccc(C(=O)Nc2ccc(S(=O)(=O)N[C@@H](C(=O)O)C(C)C)cc2)cc1` [Example 197] returned a melting point of 231 to 234 °C. In data set [1] (setting [2]), this compound yielded an IC50 of 16.1 nM.

The compound `CC(C)[C@@H](NS(=O)(=O)c1ccc(NC(=O)c2ccc(F)cc2)cc1)C(=O)O` [Example 198] yielded a melting point of 235 to 236 °C. Moreover, the IC50 in data set [1] was determined as 493 nM.

`CC(C)[C@@H](NS(=O)(=O)c1ccc(NC(=O)c2ccc(Br)cc2)cc1)C(=O)O` [Example 202] gave a melting point of 229 to 230 °C. This compound showed an IC50 in data set [1] of 11.4 nM.

On to `Cc1cnc(C(=O)Nc2ccc(S(=O)(=O)N[C@H](Cc3ccccc3)C(=O)O)cc2)cn1` [Example 204], for which the melting point lay in the range of 236 to 237 °C. Moreover, the IC50 in data set [1] came to 3950 nM.

On to `Cn1cc(CC(NS(=O)(=O)c2ccc(-c3nnn(-c4ccccc4)n3)cc2)C(=O)O)c2ccccc21` (stereo not shown) [Example 212], for which the melting point lay within 199 to 202 °C. In data set [1], this compound gave an IC50 of 393 nM.

As to `O=C(O)C(Cc1c[nH]c2ccc(F)cc12)NS(=O)(=O)c1ccc(-c2nnn(-c3ccccc3)n2)cc1` (stereo not shown) [Example 213], the melting point lay within 224 to 225 °C. Further, the 50% inhibitory concentration (IC50) in data set [1] is 128 nM.

Turning to `CC(C)C[C@@H](NS(=O)(=O)c1ccc(-c2nnn(-c3ccccc3)n2)cc1)C(=O)O` [Example 214], the melting point was 202 to 204 °C. The midpoint of inhibition in data set [1], the IC50, lay at 832 nM.

On to `CC(C)[C@@H](NS(=O)(=O)c1ccc(-c2nnn(-c3ccccc3)n2)cc1)C(=O)O` [Example 215], for which the melting point lay in the range of 221 to 222 °C. Besides, in data set [1] (setting [2]), the IC50 was found to be 110 nM.

For `Cc1cccc2[nH]cc(CC(NS(=O)(=O)c3ccc(-c4nnn(-c5ccccc5)n4)cc3)C(=O)O)c12` (stereo not shown) [Example 216], the melting point was in the range of 145 to 148 °C. In data set [1], this compound showed an IC50 of 107 nM.

As to `COc1ccc(-n2nnc(-c3ccc(S(=O)(=O)N[C@H](Cc4c[nH]c5ccccc45)C(=O)O)cc3)n2)cc1` [Example 220], the melting point lay in the range of 195 to 196 °C.

With `CCC(C)[C@@H](NS(=O)(=O)c1ccc(-c2nnn(-c3ccccc3)n2)cc1)C(=O)O` (stereo partly shown) [Example 221], the melting point lay within 205 to 207 °C. For the same compound, the IC50 in data set [1] was found to be 316 nM.

Turning to `CC(C)[C@@H](NS(=O)(=O)c1ccc(-c2nnn(-c3ccc(O)cc3)n2)cc1)C(=O)O` [Example 223], the melting point is 190 °C (dec.). Further, in data set [1], it took 349 nM to reach half-maximal inhibition (IC50).

In the case of `COc1ccc(-n2nnc(-c3ccc(S(=O)(=O)N[C@@H](C(=O)O)C(C)(C)C)cc3)n2)cc1` [Example 226], the melting point lay within 204 to 207 °C. The same compound displayed an IC50 in data set [1] of 166 nM.

The compound `O=C(O)[C@@H](Cc1c[nH]c2ccccc12)NS(=O)(=O)c1ccc(-c2nnn(-c3ccc(F)cc3)n2)cc1` [Example 227] came in with a melting point of 203 to 205 °C. Moreover, the IC50 in data set [1] was determined as 19.8 nM.
